In brackets after ≈: the same amount, converted by molar mass. Peptide text beside a SMILES is read from it.
Tested on: 11 clinically relevant bacterial pathogens
Test: MIC over the panel of pathogens
Assay type: cell-based
Settings: Table S17; lowest MIC over the strains tested

Structure (SMILES)	MIC (lowest MIC value obtained in the antimicrobial activity assays) [mM]
CC[C@H](C)[C@H](N)C(=O)N[C@@H](CC(C)C)C(=O)N[C@@H](CC(C)C)C(=O)N[C@H](C(=O)N[C@H](C(=O)N[C@@H](C)C(=O)N[C@H](C(=O)N[C@@H](C)C(=O)N[C@H](C(=O)N[C@@H](CCCCN)C(=O)N[C@@H](CC(C)C)C(=O)NCC(=O)N[C@@H](CC(C)C)C(=O)O)[C@@H](C)CC)[C@@H](C)CC)[C@@H](C)O)[C@@H](C)O [Ararin-1] (H-ILLTTAIAIKLGL-OH)	32000 (≈ 42900 mg/mL)
CC[C@H](C)[C@H](NC(=O)[C@H](CCCCN)NC(=O)[C@@H](NC(=O)[C@H](Cc1c[nH]c2ccccc12)NC(=O)[C@@H](N)CCCCN)[C@@H](C)O)C(=O)N[C@@H](Cc1ccc(O)cc1)C(=O)N[C@@H](CC(C)C)C(=O)N1CCC[C@H]1C(=O)N[C@@H](CC(C)C)C(=O)N[C@@H](CC(C)C)C(=O)N[C@@H](CC(C)C)C(=O)N1CCC[C@H]1C(=O)N[C@@H](CC(C)C)C(=O)O [Bisonin-2] (H-KWTKIYLPLLLPL-OH)	8000 (≈ 12800 mg/mL)
CC[C@H](C)[C@H](NC(=O)[C@H](CC(C)C)NC(=O)[C@H](CCCNC(=N)N)NC(=O)[C@H](Cc1c[nH]c2ccccc12)NC(=O)[C@H](CC(C)C)NC(=O)[C@@H](NC(=O)[C@H](CCCNC(=N)N)NC(=O)[C@H](CCC(N)=O)NC(=O)[C@H](Cc1ccc(O)cc1)NC(=O)[C@H](CC(C)C)NC(=O)[C@@H](N)CCCCN)[C@@H](C)CC)C(=O)N[C@@H](CO)C(=O)N[C@@H](CCC(=O)O)C(=O)N[C@@H](CC(C)C)C(=O)O [Equusin-3] (H-KLYQRILWRLISEL-OH)	4000 (≈ 7320 mg/mL)
CC[C@H](C)[C@H](NC(=O)[C@H](Cc1ccccc1)NC(=O)[C@H](CC(N)=O)NC(=O)[C@@H](NC(=O)[C@@H](NC(=O)[C@H](Cc1c[nH]cn1)NC(=O)[C@@H](N)CC(C)C)[C@@H](C)O)[C@@H](C)CC)C(=O)N[C@H](C(=O)N[C@@H](CCCCN)C(=O)N[C@@H](CO)C(=O)N[C@@H](CC(C)C)C(=O)N[C@@H](CC(C)C)C(=O)N[C@@H](CC(C)C)C(=O)O)[C@@H](C)CC [Bisonin-1] (H-LHTINFIIKSLLL-OH)	16000 (≈ 24400 mg/mL)
CC[C@H](C)[C@H](NC(=O)[C@H](CCCNC(=N)N)NC(=O)[C@H](Cc1c[nH]cn1)NC(=O)[C@H](CCCCN)NC(=O)[C@@H](NC(=O)CNC(=O)[C@H](CCCNC(=N)N)NC(=O)[C@H](C)NC(=O)[C@H](CCCCN)NC(=O)[C@@H](NC(=O)[C@H](C)NC(=O)[C@@H]1CCCN1C(=O)[C@H](CC(C)C)NC(=O)[C@H](CCC(N)=O)NC(=O)[C@H](CO)NC(=O)[C@H](Cc1ccccc1)NC(=O)[C@H](CC(C)C)NC(=O)[C@H](CC(C)C)NC(=O)[C@@H](NC(=O)[C@@H](N)CS)C(C)C)C(C)C)[C@@H](C)O)C(=O)N[C@@H](CCCCN)C(=O)N[C@@H](Cc1c[nH]c2ccccc12)C(=O)N[C@@H](CC(N)=O)C(=O)N[C@@H](CCCNC(=N)N)C(=O)N[C@@H](CCCCN)C(=O)O [Equusin-4] (H-CVLLFSQLPAVKARGTKHRIKWNRK-OH)	16000 (≈ 47200 mg/mL)
CC[C@H](C)[C@H](NC(=O)[C@@H]1CCCN1C(=O)[C@H](CC(N)=O)NC(=O)[C@@H]1CCCN1C(=O)[C@@H]1CCCN1C(=O)[C@H](CCCCN)NC(=O)[C@@H](N)CCCCN)C(=O)N[C@@H](CCCCN)C(=O)N1CCC[C@H]1C(=O)N[C@@H](CCCCN)C(=O)N[C@H](C(=O)N1CCC[C@H]1C(=O)N[C@@H](CC(C)C)C(=O)N[C@@H](CO)C(=O)N[C@@H](C)C(=O)N1CCC[C@H]1C(=O)N[C@@H](CCCNC(=N)N)C(=O)N[C@@H](CCCCN)C(=O)N[C@@H](CO)C(=O)N1CCC[C@H]1C(=O)N[C@@H](CC(N)=O)C(=O)N[C@H](C(=O)N[C@H](C(=O)N[C@@H](CCCCN)C(=O)N[C@@H](Cc1ccc(O)cc1)C(=O)N[C@@H](CCCNC(=N)N)C(=O)N[C@@H](CC(C)C)C(=O)N[C@@H](CCCCN)C(=O)N[C@@H](Cc1ccccc1)C(=O)N[C@@H](CCCNC(=N)N)C(=O)O)C(C)C)[C@@H](C)O)C(C)C [Mammuthusin-5] (H-KKPPNPIKPKVPLSAPRKSPNTVKYRLKFR-OH)	32000 (≈ 112000 mg/mL)

Reference: paper doi:10.1101/2023.10.01.560353v1 (bioRxiv, 2023)
